# How the values were obtained:
# [1] = tested on: hTNFα-induced neutrophil recruitment; assay: Neutrophil recruitment in mice, compound pre-mixed with hTNFα, i.p.; assay type: in vivo, Balb/c mice; details: for neutrophil recruitment vs TNFα in the absence of the compound: sample 1, ratio compound:TNFα 0.1:1, i.p.
# Protocol: In separate studies, compounds of formula (3) and formula (15) were mixed with 20 μM solutions of TNFα dissolved in phosphate buffered saline (PBS) to a concentration of 2 μM, 20 μM and 200 μM. The ratio of each compound to TNFα was, therefore, 0.1:1 (sample 1), 1:1 (sample 2) and 10:1 (sample 3). […] This process separates protein bound compound and free compound. A control sample containing PBS only was processed in the same way to provide a vehicle control for the study. The concentration of eluted protein was determined using a Nanodrop (ND-1000). The TNFα: compound complexes were diluted in PBS to a concentration for injection of 0.03 μg/kg
# For the study, typically, each group contained 10 male Balb/c mice (Charles River) apart from an anti-human TNFα antibody positive control, which used a set of 5 mice.
# Compound only mice were also included in the study to assess the effect of compound on neutrophil recruitment.
# All mice were killed by cervical dislocation two hours post-injection of hTNFα (t=2 h) and the peritoneal cavity was lavaged with 3 mL of FACS buffer (500 mL PBS containing 2 g bovine serum albumin, 6 mL HEPES buffer and […]). Lavage fluid was aspirated and neutrophil numbers were assessed by staining cells with anti-Gr1 PE and anti-CD45 FITC by FACS as detailed below.
# 100 μL of lavage fluid from each sample was aliquoted into FACS tubes. A FACS cocktail was made up using anti-GR-1 PE (BD cat #553128 Lot #75542) at 1 in 39 dilution and anti-CD45 FITC (BD cat #553080 Lot #80807) at 1 in 19 dilution in FACS buffer. Fc block (BD Cat #553142 Lot #87810) was prepared 1 in 10 with FACS buffer and 10 μL added to each sample 5 minutes before adding the antibody cocktail. […] Samples were then left for 20 mins on ice. 1 mL of FACS Lyse solution (BD Cat #349202 Lot #29076, diluted 1:10 in dH2O) was added to each tube, mixed and left at room temperature for 5 minutes. 1 mL of FACS Buffer was then added to each tube and centrifuged at 400 g for 5 minutes. The FACS buffer was then carefully poured off and the tip of the tube dabbed on absorbent paper to leave the tube completely dry. Then […] of 1 in 10 Reference Bead solution (Sigma cat #P2477 Lot #116K1612) diluted in FACS buffer was added to each tube.
# Samples were analysed using FACScalibur II and FloJo software.
# TNFα [2] = molecular target: T1, TNFα (Homo sapiens, UniProt P01375); assay: Fluorescence probed thermal denaturation assay (Thermofluor) of TNFα; assay type: binding; details: TNFα + 5% DMSO + compound
# Protocol: A fluorescence probed thermal denaturation assay was performed to assess the effect of the compounds on the thermal stability of TNFα as a measure of compound binding. The reaction mix contained 5 μl of 30×SYPRO® Orange dye (Invitrogen) and 5 μl of TNFα (at 1.0 mg/ml), 37.5 μl PBS, pH 7.4 and 2.5 μl of compound (at 2 mM in DMSO). 10 μl of the mix was dispensed in quadruplicate into a 384 PCR optical well plate and was run on a 7900HT Fast Real-Time PCR System […]. PCR
# System heating device was set at 20° C. to 99° C. with a ramp rate of 1.1° C./min; fluorescence changes in the wells were monitored by a Charge-coupled device (CCD). The fluorescence intensity increase was plotted as a function of temperature and the Tm calculated as the midpoint of this denaturation curve (determined as the point of inflection) (Table 1).
# Thermofluor measures the change of melting temperature (Tm) of TNFα due to compound either stabilising or disrupting the protein.
# TNFα [3] = molecular target: T1, TNFα; assay: Monomer exchange mass spectrometry, compound pre-incubated with h-TNFα; assay type: binding; design: made in house; details: 1:1 complex mixed with m-TNFα, 18 hours
# Protocol: Human and mouse homotrimers of TNFα (H3 and M3 respectively) were incubated together and aliquots of the solution monitored by mass spectrometry appearance of the cross species heterotrimers. The mass spectrometric analysis confirmed that monomer exchange between native TNFα trimers was able to occur in solution. The exchange rate was slow and was monitored over a course of 4 hours before full equilibration was achieved (data not shown). The mechanism is unknown, although is it unlikely to involve formation of the dimeric forms as none of these were observed. Monomer exchange is likely to be occurring between pure human and mouse trimers, the mixing of mouse and human trimers simply makes this exchange visible by mass spectrometry.
# In a second series of experiments an excess of the compound of formula (3) was incubated with Human TNFα, the excess compound of formula (3) was then removed. Mass Spectral analysis confirmed that a 1:1 complex had been formed between the compound of formula (3) and h-TNFα. Mouse TNFα was now added to this sample which was then subjected to mass spectral analysis over a number of hours. After 18 hours there was no observed change in the composition of the sample. […] In addition, there was no evidence of formation of the M3L species and no evidence of formation of the unligated H3 species. […]
# [4] = sample 2, ratio compound:TNFα 1:1, i.p.
# [5] = sample 3, ratio compound:TNFα 10:1, i.p.
# T1 sequence (P01375 77-233 limits assumed): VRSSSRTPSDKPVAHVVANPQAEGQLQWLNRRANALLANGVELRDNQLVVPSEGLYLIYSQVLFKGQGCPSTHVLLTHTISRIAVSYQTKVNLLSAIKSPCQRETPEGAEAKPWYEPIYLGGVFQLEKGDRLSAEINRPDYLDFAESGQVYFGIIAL
SMILES,neutrophil recruitment vs TNFα in the absence of the compound [1],"inhibition of neutrophil recruitment [1, 4] [%]","inhibition of neutrophil recruitment [1, 5] [%]",Tm (° C.) (mean ± sd) (TNFα [2]),Tm difference (= (TNF + cpd) - (TNF + DMSO)) (TNFα [2]) [°C],off-rate when complexed with h-TNFα (TNFα [3])
Cc1ccc(C)c(Cn2c(C(O)c3ccncc3)nc3ccccc32)c1 (stereo not drawn) [Compound 3],not significantly different,86,85,73.2 ± 0.6 (n = 4) ° C.,11.8,no measurable off-rate
Cc1ccc(C)c(Cn2c(C(O)c3ccncc3)nc3ccc(-c4cnn(C)c4)cc32)c1 (stereo not drawn) [Compound 15],not significantly different,101,102,78.5 ± 1.1 (n = 4) ° C.,17.1,no measurable off-rate

# Source: US11674967B2, “Method of identifying potential inhibitors of APO TNFα trimers” (UCB BIOPHARMA SRL, priority 2015, dated 2023)
